Assay results reported in US20200030355A1, “COMBINATION THERAPY FOR TREATING CANCER” (Epizyme, Inc., priority 2014, published 2020).
Structures can show the parent of a compound that is named as a salt.

Each compound was assayed on MOLM-13 cells (assay: EPZ-5676 300 nM 7-day pre-treatment, then second compound 72 hours, ATPLite, IC50 shift (Example 6)). Details: 300 nM EPZ-5676 or DMSO 7-day pre-treatment, then 2nd compound 72 hours, Synergy = IC50 of 2nd compound decreased by 2-fold or more vs DMSO control.
Type: cell-based, human
Description: Cells were then equilibrated in incubators for 24 hours before treatment with a second compound. Treated assay plates were incubated with a second compound for 72 hours. After this time, plates were developed for endpoint analysis using ATPLite to measure ATP content, which is used as an indicator of cell viability.
“N/D” means that IC50 of the second compound could not be determined for both conditions.
For `O=C1c2ccccc2-c2nc3nonc3nc21` [SMER 3], the “MOLM-13 (summary of combination study: EPZ-5676 + 2nd compound)” value was “Synergy (considered synergistic if the IC50 value of the second compound decreased by 2-fold or more when EPZ-5676 was added as compared to the DMSO control)”.
In the case of `COc1cc2nc(N3CCCN(C)CC3)nc(NC3CCN(Cc4ccccc4)CC3)c2cc1OC` [BIX01294], the “MOLM-13 (summary of combination study: EPZ-5676 + 2nd compound)” value is reported as “Synergy (considered synergistic if the IC50 value of the second compound decreased by 2-fold or more when EPZ-5676 was added as compared to the DMSO control)”.
`CC[C@@]1(O)C(=O)OCc2c1cc1n(c2=O)Cc2cc3c(CN(C)C)c(O)ccc3nc2-1` [Topotecan Hydrochloride] was tested, and the “MOLM-13 (summary of combination study: EPZ-5676 + 2nd compound)” value was “Synergy (considered synergistic if the IC50 value of the second compound decreased by 2-fold or more when EPZ-5676 was added as compared to the DMSO control)”.
With `CCS(=O)(=O)N1CC(CC#N)(n2cc(-c3ncnc4[nH]ccc34)cn2)C1` [Baricitinib] the “MOLM-13 (summary of combination study: EPZ-5676 + 2nd compound)” value was “Synergy (considered synergistic if the IC50 value of the second compound decreased by 2-fold or more when EPZ-5676 was added as compared to the DMSO control)”.
With `CC1=CC(=O)c2ccccc2C1=O` [Menadione] the “MOLM-13 (summary of combination study: EPZ-5676 + 2nd compound)” value was “Synergy (considered synergistic if the IC50 value of the second compound decreased by 2-fold or more when EPZ-5676 was added as compared to the DMSO control)”.
For `O=C(c1ccc(OCCN2CCCCC2)cc1)c1c(-c2ccc(O)cc2)sc2cc(O)ccc12` [Raloxifene Hydrochloride], the “MOLM-13 (summary of combination study: EPZ-5676 + 2nd compound)” value was “Synergy (considered synergistic if the IC50 value of the second compound decreased by 2-fold or more when EPZ-5676 was added as compared to the DMSO control)”.
In the case of `CS(=O)(=O)CCNCc1ccc(-c2ccc3ncnc(Nc4ccc(OCc5cccc(F)c5)c(Cl)c4)c3c2)o1` [Lapatinib], the “MOLM-13 (summary of combination study: EPZ-5676 + 2nd compound)” value is reported as “Synergy (considered synergistic if the IC50 value of the second compound decreased by 2-fold or more when EPZ-5676 was added as compared to the DMSO control)”.
In the case of `O=C(c1cc(Cc2n[nH]c(=O)c3ccccc23)ccc1F)N1CCN(C(=O)C2CC2)CC1` [Olaparib], the “MOLM-13 (summary of combination study: EPZ-5676 + 2nd compound)” value is reported as “Synergy (considered synergistic if the IC50 value of the second compound decreased by 2-fold or more when EPZ-5676 was added as compared to the DMSO control)”.
For `COc1ccc(Cl)c(Nc2nc3ccccc3nc2NS(=O)(=O)c2cccc(NC(=O)C(C)(C)N)c2)c1` [XL147], the “MOLM-13 (summary of combination study: EPZ-5676 + 2nd compound)” value was “Synergy (considered synergistic if the IC50 value of the second compound decreased by 2-fold or more when EPZ-5676 was added as compared to the DMSO control)”.
In the case of `Cc1ccc2nc(NCCN)c3ncc(C)n3c2c1` [BMS 345541], the “MOLM-13 (summary of combination study: EPZ-5676 + 2nd compound)” value is reported as “Synergy (considered synergistic if the IC50 value of the second compound decreased by 2-fold or more when EPZ-5676 was added as compared to the DMSO control)”.
With `COc1cc(Nc2ncc(F)c(Nc3ccc4c(n3)N(COP(=O)(O)O)C(=O)C(C)(C)O4)n2)cc(OC)c1OC` [Fostamatinib disodium] the “MOLM-13 (summary of combination study: EPZ-5676 + 2nd compound)” value was “Synergy (considered synergistic if the IC50 value of the second compound decreased by 2-fold or more when EPZ-5676 was added as compared to the DMSO control)”.
For `Cc1cnc(NC(=O)Nc2cc(Br)c(C)cc2OC[C@@H]2CNCCO2)cn1` [LY2603618], the “MOLM-13 (summary of combination study: EPZ-5676 + 2nd compound)” value was “Synergy (considered synergistic if the IC50 value of the second compound decreased by 2-fold or more when EPZ-5676 was added as compared to the DMSO control)”.
For `C[C@@]1(C(=O)Nc2ccc(F)nc2)CCCN1c1nc(Nc2cc(C3CC3)n[nH]2)c2cccn2n1` [BMS-754807], the “MOLM-13 (summary of combination study: EPZ-5676 + 2nd compound)” value was “Synergy (considered synergistic if the IC50 value of the second compound decreased by 2-fold or more when EPZ-5676 was added as compared to the DMSO control)”.
For `Cn1c2ccccc2c2c3c(c4c5ccccc5n(CCC#N)c4c21)CNC3=O` [Go 6976], the “MOLM-13 (summary of combination study: EPZ-5676 + 2nd compound)” value was “Synergy (considered synergistic if the IC50 value of the second compound decreased by 2-fold or more when EPZ-5676 was added as compared to the DMSO control)”.
`CO[C@H]1C[C@@H]2CC[C@@H](C)[C@@](O)(O2)C(=O)C(=O)N2CCCC[C@H]2C(=O)O[C@H]([C@H](C)C[C@@H]2CC[C@@H](OC(=O)C(C)(CO)CO)[C@H](OC)C2)CC(=O)[C@H](C)/C=C(\C)[C@@H](O)[C@@H](OC)C(=O)[C@H](C)C[C@H](C)/C=C/C=C/C=C/1C` [Temsirolimus] was tested, and the “MOLM-13 (summary of combination study: EPZ-5676 + 2nd compound)” value was “Synergy (considered synergistic if the IC50 value of the second compound decreased by 2-fold or more when EPZ-5676 was added as compared to the DMSO control)”.
With `Nc1cccc2c1C(=O)N(C1CCC(=O)NC1=O)C2=O` (stereo not shown) [Pomalidomide] the “MOLM-13 (summary of combination study: EPZ-5676 + 2nd compound)” value was “Synergy (considered synergistic if the IC50 value of the second compound decreased by 2-fold or more when EPZ-5676 was added as compared to the DMSO control)”.
`CC(=O)OC[C@H]1O[C@@H]([S-])[C@H](OC(C)=O)[C@@H](OC(C)=O)[C@@H]1OC(C)=O.CCP(CC)CC.[Au+]` [Auranofin] was tested, and the “MOLM-13 (summary of combination study: EPZ-5676 + 2nd compound)” value was “Synergy (considered synergistic if the IC50 value of the second compound decreased by 2-fold or more when EPZ-5676 was added as compared to the DMSO control)”.
With `Clc1ccc(C2(c3ccc(-c4cn[nH]c4)cc3)CCNCC2)cc1` [AT7867] the “MOLM-13 (summary of combination study: EPZ-5676 + 2nd compound)” value was “Synergy (considered synergistic if the IC50 value of the second compound decreased by 2-fold or more when EPZ-5676 was added as compared to the DMSO control)”.
`CCc1c2c(nc3ccc(OC(=O)N4CCC(N5CCCCC5)CC4)cc13)-c1cc3c(c(=O)n1C2)COC(=O)[C@]3(O)CC` [Irinotecan Hydrochloride] was tested, and the “MOLM-13 (summary of combination study: EPZ-5676 + 2nd compound)” value was “Synergy (considered synergistic if the IC50 value of the second compound decreased by 2-fold or more when EPZ-5676 was added as compared to the DMSO control)”.
With `N.N.[Cl][Pt][Cl]` [Cisplatin] the “MOLM-13 (summary of combination study: EPZ-5676 + 2nd compound)” value was “Synergy (considered synergistic if the IC50 value of the second compound decreased by 2-fold or more when EPZ-5676 was added as compared to the DMSO control)”.
`Cc1cc(Cl)cc(OCCn2cc(F)cn2)c1-c1nc(N)nc2c1CN(C(=O)NCC(C)(F)F)C2` [BEP800] was tested, and the “MOLM-13 (summary of combination study: EPZ-5676 + 2nd compound)” value was “Synergy (considered synergistic if the IC50 value of the second compound decreased by 2-fold or more when EPZ-5676 was added as compared to the DMSO control)”.
With `Cc1cccc(-c2[nH]c(C(C)(C)C)nc2-c2ccc3c(c2)OCO3)n1` [SB-505124] the “MOLM-13 (summary of combination study: EPZ-5676 + 2nd compound)” value was “Synergy (considered synergistic if the IC50 value of the second compound decreased by 2-fold or more when EPZ-5676 was added as compared to the DMSO control)”.
With `Cn1ncnc1[C@H]1c2n[nH]c(=O)c3cc(F)cc(c23)N[C@@H]1c1ccc(F)cc1` [BMN 673] the “MOLM-13 (summary of combination study: EPZ-5676 + 2nd compound)” value was “Synergy (considered synergistic if the IC50 value of the second compound decreased by 2-fold or more when EPZ-5676 was added as compared to the DMSO control)”.
For `CC1=C(/C=C/C(C)=C\C=C\C(C)=C\C(=O)O)C(C)(C)CCC1` [Alitretinoin], the “MOLM-13 (summary of combination study: EPZ-5676 + 2nd compound)” value was “Synergy (considered synergistic if the IC50 value of the second compound decreased by 2-fold or more when EPZ-5676 was added as compared to the DMSO control)”.
In the case of `Nc1ccccc1NC(=O)c1ccc(CNC(=O)OCc2cccnc2)cc1` [MS-275], the “MOLM-13 (summary of combination study: EPZ-5676 + 2nd compound)” value is reported as “Synergy (considered synergistic if the IC50 value of the second compound decreased by 2-fold or more when EPZ-5676 was added as compared to the DMSO control)”.
